Legend:
[1] = biological target: T1, human GLP-1 receptor (Homo sapiens, UniProt P43220); assay: GLP-1 receptor binding, displacement of 125I-GLP-1, low and high HSA; details: 2% HSA versus 0.005% HSA
T1 construct: host or cells: cell membrane preparation
Procedure: For a receptor binding test in the presence of low-concentration HSA (0.005% (w/v)), 50 μL of assay buffer was added to each well of the assay plate. For a receptor binding test in the presence of high-concentration HSA (2% (w/v)), 50 μL of 8% (w/v) albumin stock solution was added to each well of the assay plate. […] In the presence of 0.005% HSA, all test compounds and the reference control were diluted to 2 μM with assay buffer, and then all samples were diluted in 4-fold serial gradient dilutions for a total of 10 concentration gradients. […] 25 μL of test compounds or reference control at different concentrations were added to the appropriate wells of the assay plate, respectively. Cell membrane protein aliquots were thawed and diluted to their working concentration (40 μg/mL), and 50 μL of the cell membrane-containing solution was added to each well of the assay plate. […] The assay plate was incubated at room temperature for 1 h. After the incubation, the reaction solution was collected on a GF/C filter plate using a cell collector, washed 6 times with a washing buffer, and dried in a drying oven at 50° C. for 1 h. 50 μL of scintillation solution was added and blocked, and the values were read using Microbeta2. IC50 values were calculated by the nonlinear regression analysis in the GraphPad Prism software and reported in nM. […]

[2] = tested on: db/db mice; assay: Single-dose study of blood glucose, food and water intake on db/db mice (Example 15); type: in vivo; details: single s.c. 100 μg/kg
Procedure: (§1) Male db/db (BKS/Lepr) mice aged 8-9 weeks were housed in appropriately sized feeding cages in a barrier environment and had free access to standard food and purified water, with environmental conditions controlled at 40%-60% RH and 22-24° C. After an adaptation period of 1-2 weeks, the mice were used in the experiment.
Before the start of the experiment on the day, the mice were evaluated for baseline blood glucose at about 9:00 a.m. and weighed.
The GLP-1 derivatives were dissolved in the vehicle to an administration concentration of 20 μg/mL, and the administration was performed once by subcutaneous injection (s.c., 50 μL/10 g body weight) at back of the neck. The compound of Example 2 was administered at about 10:00 a.m. (time 0), and the blood glucose of the mice was evaluated 1 h, 2 h, 3 h, 6 h, 12 h, 24 h, 48 h and 72 h after the administration. The tail of each mouse was cleaned with an alcohol cotton ball, and blood drops were collected from the tail using a disposable blood collection needle and measured with a glucometer (Roche) and accompanying testing strips. Meanwhile, the food intake and water intake of the mice were monitored every day.
The dose-response curve of blood glucose versus time, the dose-response curve of food intake versus time, and the dose-response curve of water intake versus time were plotted for each single dose of GLP-1 derivative. […]

[3] = tested on: Kkay mice; assay: Long-term pharmacodynamic study on Kkay mice (Example 17); type: in vivo; details: s.c. 100 and 300 μg/kg; dulaglutide 600 μg/kg; FIGS. 9a-9b
Procedure: Before the start of the experiment on the day, the mice were evaluated for baseline blood glucose at about 9:00 a.m. and weighed. […] The vehicle contained 14 mg/mL propylene glycol, 5.5 mg/mL phenol and 1.133 mg/mL disodium hydrogen phosphate, with a pH value of 7.4.
(time 0) at back of the neck once every 2 days for 16 consecutive times, the blood glucose of the mice was evaluated 3 h, 6 h, 1 day and 2 days after the first administration, and HbA1c was detected in an EDTA anticoagulation tube 48 h after the last administration.

[4] = tested on: db/db mice; assay: Single-dose pharmacodynamic study on db/db mice (Example 5); type: in vivo; details: single s.c. 100 μg/kg
Procedure: The title compounds of Examples 1-4 and Comparative Examples 1-4 (also known as GLP-1 derivatives) were tested in a single dose study on an obese mouse model (db/db mice) with type 2 diabetes (T2DM). The hypoglycemic drug effect of the GLP-1 derivatives was tested at a dose of 100 μg/kg.
as §1, with “relative humidity (RH)” for “RH”
Before the start of the experiment on the day, the mice were evaluated for baseline blood glucose at about 9:30 a.m. and weighed. […]
The GLP-1 derivatives were dissolved in the vehicle to an administration concentration of 20 μg/mL, and the administration volume was 5 mL/kg (i.e., 50 μL/10 g body weight). […] The tail of each mouse was cleaned with an alcohol cotton ball, and blood drops were collected from the tail using a disposable blood collection needle and measured with a glucometer and accompanying testing strips (Roche). Food intake and body weight of each mouse were measured at 24 h, 48 h and 72 h after the administration. […]

T1 sequence (P43220 24-463): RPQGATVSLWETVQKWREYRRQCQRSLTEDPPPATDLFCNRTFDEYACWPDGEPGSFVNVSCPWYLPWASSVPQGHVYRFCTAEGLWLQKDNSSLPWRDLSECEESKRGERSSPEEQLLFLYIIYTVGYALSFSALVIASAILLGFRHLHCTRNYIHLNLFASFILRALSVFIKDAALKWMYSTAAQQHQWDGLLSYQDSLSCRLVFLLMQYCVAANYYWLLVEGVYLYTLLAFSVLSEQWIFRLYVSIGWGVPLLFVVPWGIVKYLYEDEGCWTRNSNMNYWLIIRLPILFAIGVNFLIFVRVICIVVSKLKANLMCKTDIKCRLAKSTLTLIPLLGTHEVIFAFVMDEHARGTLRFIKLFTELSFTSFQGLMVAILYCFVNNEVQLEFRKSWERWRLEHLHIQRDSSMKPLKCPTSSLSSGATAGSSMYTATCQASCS

| Substance | Ratio [(IC50/nM) high-concentration HSA]/[(IC50/nM) low-concentration HSA] [1] | control of food intake and water intake compared to semaglutide ([2]; db/db mice, FIGS. 7c-7d) | hypoglycemic effect on db/db mice compared to semaglutide ([2]; same dose, FIGS. 7a-7b) | hypoglycemic effect on Kkay mice compared to dulaglutide [3] | effective duration of action of hypoglycemic effect on db/db mice compared to semaglutide [4] | hypoglycemic effect on db/db mice compared to semaglutide ([4]; FIGS. 2a-2b) |
| --- | --- | --- | --- | --- | --- | --- |
| semaglutide | 813 | – | – | – | – | – |
| N-ε^26-[2-(2-[2-(4-[19-carboxynonadecanoylamino]-4(S)-carboxybutanoylamino)ethoxy]ethoxy)acetyl][Gly8, Arg34]GLP-1-(7-37) Peptide [Compound 2] | – | its effect is superior to semaglutide | superior hypoglycemic effect | significantly superior hypoglycemic effect on Kkay mice to dulaglutide | longer than that of semaglutide | superior hypoglycemic effect to semaglutide |

From patent publication US12703731B2, “Long-acting GLP-1 compound” (Gan & Lee Pharmaceuticals Co., Ltd., priority 2019, dated 2026)
